Assay results from US6117840A, “CS-1 peptidomimetics, compositions and methods of using the same” (Cytel Corporation, priority 1997, dated 2000).
Square brackets hold non-standard residues; d marks the D form. Peptide text beside a SMILES is read from it. * marks the point of attachment. NHOctadecyl = CCCCCCCCCCCCCCCCCCN*; NHPhenethyl = c1ccc(CCN*)cc1; Morpholide = C1CN(*)CCO1; Nle = CCCC[C@H](N)C(=O)O; Piperidide = C1CCN(*)CC1; Pyrrolidide = C1CCN(*)C1; NHDecyl = CCCCCCCCCCN*; PhAc = O=C(Cc1ccccc1)*; NHBn = c1ccc(CN*)cc1; Bz = O=C(c1ccccc1)*; Ahx = NCCCCCC(=O)O; NHBu = CCCCN*; NHNH2 = NN*

target: T1, VLA-4 (Homo sapiens, UniProt P05556+P13612); test: not given; type: cell-based; conditions: not given
T1 construct: host or cells: Jurkat (human T lymphoblastic line)
Experimental: Binding inhibition is measured here as a concentration of peptide that inhibits one-half the binding between a standard number of Jurkat cells and a standard amount of CS-1 peptide bound to the surface of a microtiter plate well. Those concentrations are conveniently expressed as IC50 values, smaller numbers indicating a lower concentration required to inhibit 50 percent binding and therefore greater potency. Further specifics of this assay are provided hereinafter.
Jurkat cells (ATCC TIB 152), a human T lymphoblastic line, labeled with ^51 chromium were used to assay in vitro binding inhibition provided by various peptides discussed herein.
The plates were prepared as follows: The 25-mer CS1 peptide (SEQ ID NO:1) dissolved at 0.5-1 μg/ml in a buffer of 0.1M NaHCO3 at pH 9.5 tha also contained 10 μg/ml of bovine serum albumin (BSA) or a conjugate o the CS1 peptide linked to ovalbumin (CS1-OVA) dissolved at 1-2.5 μg/ml in the same buffer was used as the substrate. Each well of the microtiter plates was coated with 50 μl of substrate or buffer alone for controls The wells were permitted to dry out completely and were then rinsed twice with PBS at pH 7.4. Nonspecific binding sites of each well were then blocked using 200 μl per well of RPMI/1 percent BSA for two hours at room temperature. Both solid phaseaffixed substrates provided similar results.
Jurkat cells (3-5×10^6 cells) were placed into a 15 ml Falcon.TM roundbottom tube with a cap. The tube was centrifuged, and the extra medium was then removed.
Two hundred microliters of a ^51 Cr labeling solution were added to th centrifuged cells and maintained in contact with the cells for 90-120 minutes in a warm room. This procedure typically provides about 50,000-100,000 cpm/well with about 80-100 percent cell viability. Longer contact times provide a greater amount of labeling but lower cell viability.
The labeled cells are washed with (i) complete medium, (ii) 1 mM EDTA/PBS and then (iii) RPMI/1 percent BSA free of serum components. The cells are centrifuged after each washing. The cells are finally resuspended in serumfree RPMI/1 percent BSA at a concentration of 1×10^6 viabl cells/ml, which provides a concentration that is diluted by onehalf in th assay.
Inhibitor peptides are prepared as stock solutions at 20 mg/ml in DMSO in 1.5 ml cryogenic screwcap vials, and were stored at -70° C. Using Flow™ roundbottom or Vbottom microtiter plates, the inhibitor peptides were prepared at twice the assay concentration in RPMI/1 percent BSA at 6 μl/well.
Four initial dilutions were typically used.
The ^51 Crlabeled cells (1×10^6 cells at 60 μl/well) were then admixed with the diluted peptide solutions. The admixtures were maintained at room temperature (about 22° C.) for 30 minutes.
One hundred microliters of each inhibitor peptide/cell admixture were transferred to the substratecoated wells. This was done in triplicate for each dilution. The resulting plates were incubated for 30 minutes at 37° C. and then washed gently three times with RPMI/1 percent BSA at 200 μl/well. Binding was observed microscopically, particularly after the second wash.
The bound cells were then lysed by the addition of a 0.5 percent solution of sodium dodecylsulfate in water at 100 μl/well. The resulting solutions were then processed for counting and calculation of IC50 values following usual procedures. Appropriate positive and negative controls were used with each plate so that the results of separate assays could be normalized and compared.

T1 sequence (P13612 34-1032): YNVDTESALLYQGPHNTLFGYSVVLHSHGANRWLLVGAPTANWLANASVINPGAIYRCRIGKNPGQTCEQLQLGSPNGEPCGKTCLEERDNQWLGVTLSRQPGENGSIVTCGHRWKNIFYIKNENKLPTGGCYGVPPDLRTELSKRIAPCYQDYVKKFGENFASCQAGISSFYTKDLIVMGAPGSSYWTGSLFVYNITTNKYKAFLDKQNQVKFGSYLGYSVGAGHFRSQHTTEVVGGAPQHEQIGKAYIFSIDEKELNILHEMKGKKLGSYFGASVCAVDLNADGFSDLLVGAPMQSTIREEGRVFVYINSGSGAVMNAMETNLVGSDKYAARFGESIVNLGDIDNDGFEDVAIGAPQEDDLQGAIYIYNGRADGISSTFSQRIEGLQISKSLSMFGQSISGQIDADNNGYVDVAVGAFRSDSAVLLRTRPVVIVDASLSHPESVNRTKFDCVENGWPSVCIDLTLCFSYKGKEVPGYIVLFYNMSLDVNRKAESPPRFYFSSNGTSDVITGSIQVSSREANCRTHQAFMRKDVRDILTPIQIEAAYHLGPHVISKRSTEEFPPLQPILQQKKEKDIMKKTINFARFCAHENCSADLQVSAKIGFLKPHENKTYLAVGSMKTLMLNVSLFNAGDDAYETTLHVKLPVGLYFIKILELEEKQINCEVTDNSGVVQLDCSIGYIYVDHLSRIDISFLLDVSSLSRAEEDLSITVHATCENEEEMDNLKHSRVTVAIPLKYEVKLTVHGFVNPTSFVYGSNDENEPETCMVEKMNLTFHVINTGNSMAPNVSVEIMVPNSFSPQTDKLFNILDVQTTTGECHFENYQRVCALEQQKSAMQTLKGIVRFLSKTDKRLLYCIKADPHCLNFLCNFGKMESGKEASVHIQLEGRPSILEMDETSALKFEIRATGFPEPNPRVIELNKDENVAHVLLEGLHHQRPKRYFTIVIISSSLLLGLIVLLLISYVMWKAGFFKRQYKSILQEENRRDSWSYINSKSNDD
T1 sequence (P05556 21-798): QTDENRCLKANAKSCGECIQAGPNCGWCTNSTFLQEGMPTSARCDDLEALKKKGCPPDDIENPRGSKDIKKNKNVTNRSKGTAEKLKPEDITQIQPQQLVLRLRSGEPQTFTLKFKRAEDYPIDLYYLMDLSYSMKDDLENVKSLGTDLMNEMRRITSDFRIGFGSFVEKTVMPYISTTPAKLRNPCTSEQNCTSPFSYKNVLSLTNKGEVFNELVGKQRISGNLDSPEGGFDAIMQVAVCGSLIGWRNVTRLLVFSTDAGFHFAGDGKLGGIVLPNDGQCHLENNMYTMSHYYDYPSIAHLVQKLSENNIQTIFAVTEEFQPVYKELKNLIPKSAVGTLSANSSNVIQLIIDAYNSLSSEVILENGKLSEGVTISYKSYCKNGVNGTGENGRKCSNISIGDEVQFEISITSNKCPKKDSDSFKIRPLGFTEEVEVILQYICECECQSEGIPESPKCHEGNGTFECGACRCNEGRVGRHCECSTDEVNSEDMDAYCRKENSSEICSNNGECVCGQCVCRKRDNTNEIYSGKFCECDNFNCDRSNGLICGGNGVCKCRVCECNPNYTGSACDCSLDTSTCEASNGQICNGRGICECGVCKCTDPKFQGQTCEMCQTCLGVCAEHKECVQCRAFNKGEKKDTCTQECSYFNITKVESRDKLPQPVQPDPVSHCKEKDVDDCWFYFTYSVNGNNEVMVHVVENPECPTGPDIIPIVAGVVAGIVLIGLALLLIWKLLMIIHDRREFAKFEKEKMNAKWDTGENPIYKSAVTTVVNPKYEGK

With `CC(=O)N[C@@H](CC(C)C)C(=O)N[C@@H](CC(=O)O)C(=O)N[C@H](C(N)=O)C(C)C` [L D V acetyl amide, reference compound] (Ac-Leu-Asp-Val-NH2) the “RELATIVE POTENCY (inhibition of VLA-4 binding CS-1)” value was 0.

same assay, conditions: relative to standard peptide SEQ ID NO:3 (=1), normalized IC50; about one-tenth or less of SEQ ID NO:3 assigned zero

First: CCCC[C@H](NC(=O)Cc1ccccc1)C(=O)N[C@@H](CC(=O)O)C(=O)N[C@@H](Cc1ccccc1)C(=O)N1CCC[C@@H]1C(N)=O [X K D F p phenylacetyl amide J = Nle] (PhAc-[Nle]DF[dP]-NH2)
Second: CC(C)C[C@H](NC(=O)c1ccccc1)C(=O)N[C@@H](CC(=O)O)C(=O)N[C@@H](Cc1ccccc1)C(=O)N1CCC[C@@H]1C(N)=O [X L D F p benzoyl amide] (Bz-LDF[dP]-NH2)
The “RELATIVE POTENCY (inhibition of VLA-4 binding CS-1)” value of the first is lower: 49 for the first, 75 for the second.

First: CCCCCCCCCCNC(=O)[C@@H]1CCCN1C(=O)[C@H](Cc1ccccc1)NC(=O)[C@H](CC(=O)O)NC(=O)[C@H](CC(C)C)NC(=O)Cc1ccccc1 [X L D F P Z phenylacetyl decylamide] (PhAc-LDFP-NHDecyl)
Second: CCCCNC(=O)[C@H](Cc1ccccc1)NC(=O)[C@H](CC(=O)O)NC(=O)[C@H](CC(C)C)NC(=O)Cc1ccccc1 [X L D F Z phenylacetyl n-butylamide] (PhAc-Leu-Asp-Phe-NHBu)
The “RELATIVE POTENCY (inhibition of VLA-4 binding CS-1)” value of the first is lower: 2 for the first, 3 for the second.

Compared with `CC(C)C[C@H](NC(=O)Cc1ccccc1)C(=O)N[C@@H](CC(=O)O)C(=O)N[C@@H](Cc1ccccc1)C(=O)N1CCOCC1` [X L D F Z phenylacetyl morpholinamide, N--phenylacetyl--Leu--Asp--Phe--morpholinamide] (PhAc-Leu-Asp-Phe-Morpholide), `CC(C)C[C@H](NC(=O)Cc1ccccc1)C(=O)N[C@@H](CC(=O)O)C(=O)N[C@@H](Cc1ccccc1)C(=O)N1CCCC1` [X L D F Z phenylacetyl pyrrolidinamide] (PhAc-Leu-Asp-Phe-Pyrrolidide) is lower in “RELATIVE POTENCY (inhibition of VLA-4 binding CS-1)” value: 844 for the first, 250 for the second.

Compared with `CC(C)C[C@H](NC(=O)Cc1ccccc1)C(=O)N[C@@H](CC(=O)O)C(=O)N[C@@H](Cc1ccccc1)C(=O)N1CCNCC1` [X L D F Z phenylacetyl piperazinamide], `CC(C)C[C@H](NC(=O)Cc1ccccc1)C(=O)N[C@@H](CC(=O)O)C(=O)N[C@@H](Cc1ccccc1)C(=O)N1CCCCC1` [X L D F Z phenylacetyl piperidinamide, N--phenylacetyl--Leu--Asp--Phe--piperidinamide] (PhAc-Leu-Asp-Phe-Piperidide) is lower in “RELATIVE POTENCY (inhibition of VLA-4 binding CS-1)” value: 506 for the first, 231 for the second.

First: CC(C)C[C@H](NC(=O)Cc1ccccc1)C(=O)N[C@@H](CC(=O)O)C(=O)NCC(=O)N1CCOCC1 [X L D G Z phenylacetyl morpholinamide] (PhAc-Leu-Asp-Gly-Morpholide)
Second: CC(C)C[C@H](NC(=O)Cc1ccccc1)C(=O)N[C@@H](CC(=O)O)C(=O)N[C@@H](CC(C)C)C(=O)N1CCOCC1 [X L D L Z phenylacetyl morpholinamide] (PhAc-Leu-Asp-Leu-Morpholide)
The “RELATIVE POTENCY (inhibition of VLA-4 binding CS-1)” value of the first is lower: 9 for the first, 291 for the second.

Compared with `CC(C)C[C@H](NC(=O)Cc1ccccc1)C(=O)N[C@@H](CC(=O)O)C(=O)N[C@@H](CO)C(=O)N1CCC[C@@H]1C(N)=O` [X L D S p phenylacetyl amide] (PhAc-LDS[dP]-NH2), `CC(C)C[C@H](NC(=O)Cc1ccccc1)C(=O)N[C@@H](CC(=O)O)C(=O)N[C@H](C(=O)N1CCC[C@@H]1C(N)=O)C(C)C` [X L D V p phenylacetyl amide, N--phenylacetyl--Leu--Asp--Val--D--Pro--NH2] is higher in “RELATIVE POTENCY (inhibition of VLA-4 binding CS-1)” value: 17 for the first, 106 for the second.

First: CC(C)C[C@H](NC(=O)c1ccccc1)C(=O)N[C@@H](CC(=O)O)C(=O)N[C@H](C(=O)N1CCC[C@H]1C(N)=O)C(C)C [X L D V P benzoyl amide]
Second: CC(C)C[C@H](NC(=O)Cc1ccccc1)C(=O)N[C@@H](CC(=O)O)C(=O)N[C@@H](Cc1ccc(O)cc1)C(=O)N1CCC[C@@H]1C(N)=O [X L D Y p phenylacetyl amide, N--phenylacetyl--Leu--Asp--Tyr--D--Pro--NH2] (PhAc-LDY[dP]-NH2)
The “RELATIVE POTENCY (inhibition of VLA-4 binding CS-1)” value of the first is lower: 37 for the first, 640 for the second.

Going from `CC(C)C[C@H](NC(=O)Cc1ccccc1)C(=O)N[C@@H](CC(=O)O)C(=O)N[C@@H](Cc1c[nH]c2ccccc12)C(=O)N1CCC[C@@H]1C(N)=O` [X L D W p phenylacetyl amide] (PhAc-LDW[dP]-NH2) to `CC(C)C[C@H](NC(=O)Cc1ccccc1)C(=O)N[C@@H](CC(=O)O)C(=O)N[C@@H](Cc1ccc(O)cc1)C(=O)N1CCOCC1` [X L D Y Z phenylacetyl morpholinamide, N--phenylacetyl--Leu--Asp--Tyr--morpholinamide] (PhAc-Leu-Asp-Tyr-Morpholide), the “RELATIVE POTENCY (inhibition of VLA-4 binding CS-1)” value rises from 184 to 313.

First: CC(C)C[C@H](NC(=O)Cc1ccccc1)C(=O)N[C@@H](CC(=O)O)C(=O)NNC(=O)OC(C)(C)C [X L D Z phenylacetyl N'-t-Boc-hydrazide]
Second: CC(C)C[C@H](NC(=O)Cc1ccccc1)C(=O)N[C@@H](CC(=O)O)C(=O)NCc1ccccc1 [X L D Z phenylacetyl benzylamide] (PhAc-Leu-Asp-NHBn)
The “RELATIVE POTENCY (inhibition of VLA-4 binding CS-1)” value of the first is lower: 2 for the first, 19 for the second.

First: CC(C)C[C@H](NC(=O)Cc1ccccc1)C(=O)N[C@@H](CC(=O)O)C(=O)NC(c1ccccc1)c1ccccc1 [X L D Z phenylacetyl benzylhydrylamide]
Second: CC(C)C[C@H](NC(=O)Cc1ccccc1)C(=O)N[C@@H](CC(=O)O)C(=O)N(Cc1ccccc1)Cc1ccccc1 [X L D Z phenylacetyl dibenzylamide]
The “RELATIVE POTENCY (inhibition of VLA-4 binding CS-1)” value of the first is higher: 3 for the first, 0 for the second.

In the case of `CC(C)C[C@H](NC(=O)Cc1ccccc1)C(=O)N[C@@H](CC(=O)O)C(=O)NCCc1ccccc1` [X L D Z phenylacetyl phenethylamide] (PhAc-Leu-Asp-NHPhenethyl), the “RELATIVE POTENCY (inhibition of VLA-4 binding CS-1)” value is reported as 19.

For `CC(C)C[C@H](NC(=O)Cc1ccccc1)C(=O)N[C@@H](CC(=O)O)C(=O)N[C@@H](Cc1ccccc1)C(N)=O` [X L D F phenylacetyl amide] (PhAc-Leu-Asp-Phe-NH2), the “RELATIVE POTENCY (inhibition of VLA-4 binding CS-1)” value was less than 1.
With `CC(C)C[C@H](NC(=O)Cc1ccccc1)C(=O)N[C@@H](CC(=O)O)C(=O)NN` [X L D Z phenylacetyl hydrazide] (PhAc-Leu-Asp-NHNH2) the “RELATIVE POTENCY (inhibition of VLA-4 binding CS-1)” value was less than 1.

same assay, conditions: relative to standard peptide SEQ ID NO:3 (=1), normalized IC50; about one-tenth or less of SEQ ID NO:3 assigned zero; listed as Leu--Asp--Val (LDV) Nfre amine Camide

In the case of `CC(C)C[C@H](N)C(=O)N[C@@H](CC(=O)O)C(=O)N[C@H](C(N)=O)C(C)C` [L D V free amine amide, reference compound] (H-Leu-Asp-Val-NH2), the “RELATIVE POTENCY (inhibition of VLA-4 binding CS-1)” value is reported as “zero”.

same assay, conditions: relative to standard peptide SEQ ID NO:3 (=1), normalized IC50; about one-tenth or less of SEQ ID NO:3 assigned zero; listed as X L D V p benzoyl amide

With `CC(C)C[C@H](NC(=O)c1ccccc1)C(=O)N[C@@H](CC(=O)O)C(=O)N[C@H](C(=O)N1CCC[C@H]1C(N)=O)C(C)C` [X L D V P benzoyl amide] the “RELATIVE POTENCY (inhibition of VLA-4 binding CS-1)” value was 20.

same assay, conditions: relative to standard peptide SEQ ID NO:3 (=1), normalized IC50; about one-tenth or less of SEQ ID NO:3 assigned zero; listed as X L D Y P phenylacetyl amide

With `CC(C)C[C@H](NC(=O)Cc1ccccc1)C(=O)N[C@@H](CC(=O)O)C(=O)N[C@@H](Cc1ccc(O)cc1)C(=O)N1CCC[C@@H]1C(N)=O` [X L D Y p phenylacetyl amide, N--phenylacetyl--Leu--Asp--Tyr--D--Pro--NH2] (PhAc-LDY[dP]-NH2) the “RELATIVE POTENCY (inhibition of VLA-4 binding CS-1)” value was 405.

system: not listed separately; test: Water solubility; type: physicochemical; conditions: forms a turbid dispersion rather than a solution

For `CCCCCCCCCCCCCCCCCCNC(=O)CCCCCNC(=O)[C@@H]1CCCN1C(=O)[C@H](Cc1ccccc1)NC(=O)[C@H](CC(=O)O)NC(=O)[C@H](CC(C)C)NC(=O)Cc1ccccc1` [phenylacetyl--Leu--Asp--Phe--Pro--NH(CH2)5 C(O)NHC18 H37] (PhAc-LDFP[Ahx]-NHOctadecyl; C-terminus assumed), the water solubility was “not water-soluble”.
